Experimental data reported in patent US20200055839A1 (priority 2017, published 2020).

system: NL-RLuc virus; assay: Inhibition of HIV replication (NL-RLuc virus, luciferase readout in MT-2 cells); format: cell-based; settings: Human immunodeficiency virus 1, MT2, 120 h, MT-2 cells infected with NL-RLuc virus, 5 days of incubation, 10% FBS, at least 2 experiments
Outline: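 EC50 derived via median effect equation from at least 2 experiments, using luciferase expression as virus-growth readout. Replication-competent NL-RLuc reporter virus (nef partly replaced by Renilla luciferase) infected MT-2 cells with serial compound dilutions; 5-day incubation in RPMI 1640 plus 10% FBS.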

SMILES | EC50 [nM]
COc1ccccc1COc1ccc(-c2cnc(C)c([C@H](OC(C)(C)C)C(=O)O)c2N2CCC(C)(C)CC2)nc1 [Example 357, (2S)-2-(tert-butoxy)-2-[4′-(4,4-dimethylpiperidin-1-yl)-5-[(2-methoxyphenyl)methoxy]-6′-methyl-[2,3′-bipyridine]-5′-yl]acetic acid] | 0.8
COc1ccc(COc2ccc(-c3cnc(C)c([C@H](OC(C)(C)C)C(=O)O)c3N3CCC(C)(C)CC3)nc2)c(OC)c1 [Example 358, (2S)-2-(tert-butoxy)-2-{5-[(2,4-dimethoxyphenyl)methoxy]-4′-(4,4-dimethylpiperidin-1-yl)-6′-methyl-[2,3′-bipyridine]-5′-yl}acetic acid] | 1.2
CCC(CC)COc1ccc(-c2cnc(C)c([C@H](OC(C)(C)C)C(=O)O)c2N2CCC(C)(C)CC2)nc1 [Example 359, (2S)-2-(tert-butoxy)-2-[4′-(4,4-dimethylpiperidin-1-yl)-5-(2-ethylbutoxy)-6′-methyl-[2,3′-bipyridine]-5′-yl]acetic acid] | 2
CCC(C)COc1ccc(-c2cnc(C)c([C@H](OC(C)(C)C)C(=O)O)c2N2CCC(C)(C)CC2)nc1 (stereo partly drawn) [Example 360, (2S)-2-(tert-butoxy)-2-[4′-(4,4-dimethylpiperidin-1-yl)-6′-methyl-5-(2-methylbutoxy)-[2,3′-bipyridine]-5′-yl]acetic acid] | 0.8
Cc1ncc(-c2ccc(OCCC(C)C)cc2)c(N2CCC(C)(C)CC2)c1[C@H](OC(C)(C)C)C(=O)O [Example 361, (2S)-2-(tert-butoxy)-2-[4-(4,4-dimethylpiperidin-1-yl)-2-methyl-5-[4-(3-methylbutoxy)phenyl]pyridin-3-yl]acetic acid] | 4
Cc1ncc(-c2ccc(O[C@H](C)C(C)C)cc2)c(N2CCC(C)(C)CC2)c1[C@H](OC(C)(C)C)C(=O)O [Example 362, (2S)-2-(tert-butoxy)-2-[4-(4,4-dimethylpiperidin-1-yl)-2-methyl-5-(4-{[(2R)-3-methylbutan-2-yl]oxy}phenyl)pyridin-3-yl]acetic acid] | 8
Cc1ncc(-c2ccc(O[C@@H](C)C(C)C)cc2)c(N2CCC(C)(C)CC2)c1[C@H](OC(C)(C)C)C(=O)O [Example 363, (2S)-2-(tert-butoxy)-2-[4-(4,4-dimethylpiperidin-1-yl)-2-methyl-5-(4-{[(2S)-3-methylbutan-2-yl]oxy}phenyl)pyridin-3-yl]acetic acid] | 13
Cc1ncc(-c2ccc(OCCc3cccc(Cl)c3)cc2)c(N2CCC(C)(C)CC2)c1[C@H](OC(C)(C)C)C(=O)O [Example 364, (2S)-2-(tert-butoxy)-2-(5-{4-[2-(3-chlorophenyl)ethoxy]phenyl}-4-(4,4-dimethylpiperidin-1-yl)-2-methylpyridin-3-yl)acetic acid] | 2
Cc1cccc(CCOc2ccc(-c3cnc(C)c([C@H](OC(C)(C)C)C(=O)O)c3N3CCC(C)(C)CC3)cc2)c1 [Example 365, (2S)-2-(tert-butoxy)-2-[4-(4,4-dimethylpiperidin-1-yl)-2-methyl-5-{4-[2-(3-methylphenyl)ethoxy]phenyl}pyridin-3-yl]acetic acid] | 2
Cc1ncc(-c2ccc(OCCc3c(Cl)cccc3Cl)cc2)c(N2CCC(C)(C)CC2)c1[C@H](OC(C)(C)C)C(=O)O [Example 366, (2S)-2-(tert-butoxy)-2-(5-{4-[2-(2,6-dichlorophenyl)ethoxy]phenyl}-4-(4,4-dimethylpiperidin-1-yl)-2-methylpyridin-3-yl)acetic acid] | 5
COc1ccc(CCOc2ccc(-c3cnc(C)c([C@H](OC(C)(C)C)C(=O)O)c3N3CCC(C)(C)CC3)cc2)cc1 [Example 367, (2S)-2-(tert-butoxy)-2-[4-(4,4-dimethylpiperidin-1-yl)-5-{4-[2-(4-methoxyphenyl)ethoxy]phenyl}-2-methylpyridin-3-yl]acetic acid] | 1
Cc1ncc(-c2cnc(OCCC(C)C)c(F)c2)c(N2CCC(C)(C)CC2)c1[C@H](OC(C)(C)C)C(=O)O [Example 368, (2S)-2-(tert-butoxy)-2-[4-(4,4-dimethylpiperidin-1-yl)-5′-fluoro-6-methyl-6′-(3-methylbutoxy)-[3,3′-bipyridine]-5-yl]acetic acid] | 1
Cc1ncc(-c2cnc(O[C@H](C)C(C)C)c(F)c2)c(N2CCC(C)(C)CC2)c1[C@H](OC(C)(C)C)C(=O)O [Example 369, (2S)-2-(tert-butoxy)-2-[4-(4,4-dimethylpiperidin-1-yl)-5′-fluoro-6-methyl-6′-{[(2R)-3-methylbutan-2-yl]oxy}-[3,3′-bipyridine]-5-yl]acetic acid] | 2
Cc1ncc(-c2cnc(O[C@@H](C)C(C)C)c(F)c2)c(N2CCC(C)(C)CC2)c1[C@H](OC(C)(C)C)C(=O)O [Example 370, (2S)-2-(tert-butoxy)-2-[4-(4,4-dimethylpiperidin-1-yl)-5′-fluoro-6-methyl-6′-{[(2S)-3-methylbutan-2-yl]oxy}-[3,3′-bipyridine]-5-yl]acetic acid] | 1
Cc1ncc(-c2cnc(OCCc3cccc(Cl)c3)c(F)c2)c(N2CCC(C)(C)CC2)c1[C@H](OC(C)(C)C)C(=O)O [Example 371, (2S)-2-(tert-butoxy)-2-{6′-[2-(3-chlorophenyl)ethoxy]-4-(4,4-dimethylpiperidin-1-yl)-5′-fluoro-6-methyl-[3,3′-bipyridine]-5-yl}acetic acid] | 1
Cc1cccc(CCOc2ncc(-c3cnc(C)c([C@H](OC(C)(C)C)C(=O)O)c3N3CCC(C)(C)CC3)cc2F)c1 [Example 372, (2S)-2-(tert-butoxy)-2-[4-(4,4-dimethylpiperidin-1-yl)-5′-fluoro-6-methyl-6′-[2-(3-methylphenyl)ethoxy]-[3,3′-bipyridine]-5-yl]acetic acid] | 1
Cc1ncc(-c2cnc(OCCc3c(Cl)cccc3Cl)c(F)c2)c(N2CCC(C)(C)CC2)c1[C@H](OC(C)(C)C)C(=O)O [Example 373, (2S)-2-(tert-butoxy)-2-{6′-[2-(2,6-dichlorophenyl)ethoxy]-4-(4,4-dimethylpiperidin-1-yl)-5′-fluoro-6-methyl-[3,3′-bipyridine]-5-yl}acetic acid] | 3
COc1ccc(CCOc2ncc(-c3cnc(C)c([C@H](OC(C)(C)C)C(=O)O)c3N3CCC(C)(C)CC3)cc2F)cc1 [Example 374, (2S)-2-(tert-butoxy)-2-[4-(4,4-dimethylpiperidin-1-yl)-5′-fluoro-6′-[2-(4-methoxyphenyl)ethoxy]-6-methyl-[3,3′-bipyridine]-5-yl]acetic acid] | 0.3
Cc1ncc(-c2cnc(OCC(C)(C)C)c(F)c2)c(N2CCC(C)(C)CC2)c1[C@H](OC(C)(C)C)C(=O)O [Example 375, (2S)-2-(tert-butoxy)-2-[4-(4,4-dimethylpiperidin-1-yl)-6′-(2,2-dimethylpropoxy)-5′-fluoro-6-methyl-[3,3′-bipyridine]-5-yl]acetic acid] | 8
Cc1ncc(-c2cnc(OCCC(C)(C)C)c(F)c2)c(N2CCC(C)(C)CC2)c1[C@H](OC(C)(C)C)C(=O)O [Example 376, (2S)-2-(tert-butoxy)-2-[6′-(3,3-dimethylbutoxy)-4-(4,4-dimethylpiperidin-1-yl)-5′-fluoro-6-methyl-[3,3′-bipyridine]-5-yl]acetic acid] | 5
CCCCOc1ncc(-c2cnc(C)c([C@H](OC(C)(C)C)C(=O)O)c2N2CCC(C)(C)CC2)cc1F [Example 377, (2S)-2-(tert-butoxy)-2-[6′-butoxy-4-(4,4-dimethylpiperidin-1-yl)-5′-fluoro-6-methyl-[3,3′-bipyridine]-5-yl]acetic acid] | 4
Cc1ncc(-c2cnc(OCc3ccccc3)c(F)c2)c(N2CCC(C)(C)CC2)c1[C@H](OC(C)(C)C)C(=O)O [Example 378, (2S)-2-[6′-(benzyloxy)-4-(4,4-dimethylpiperidin-1-yl)-5′-fluoro-6-methyl-[3,3′-bipyridine]-5-yl]-2-(tert-butoxy)acetic acid] | 2
Cc1ncc(-c2cnc(O[C@@H](C)Cc3ccccc3)c(F)c2)c(N2CCC(C)(C)CC2)c1[C@H](OC(C)(C)C)C(=O)O [Example 379, (2S)-2-(tert-butoxy)-2-[4-(4,4-dimethylpiperidin-1-yl)-5′-fluoro-6-methyl-6′-{[(2S)-1-phenylpropan-2-yl]oxy}-[3,3′-bipyridine]-5-yl]acetic acid] | 2
Cc1ncc(-c2cnc(O[C@H](C)Cc3ccccc3)c(F)c2)c(N2CCC(C)(C)CC2)c1[C@H](OC(C)(C)C)C(=O)O [Example 380, (2S)-2-(tert-butoxy)-2-[4-(4,4-dimethylpiperidin-1-yl)-5′-fluoro-6-methyl-6′-{[(2R)-1-phenylpropan-2-yl]oxy}-[3,3′-bipyridine]-5-yl]acetic acid] | 2
Cc1ncc(-c2cnc(OCC(C)C)c(F)c2)c(N2CCC(C)(C)CC2)c1[C@H](OC(C)(C)C)C(=O)O [Example 381, (2S)-2-(tert-butoxy)-2-[4-(4,4-dimethylpiperidin-1-yl)-5′-fluoro-6-methyl-6′-(2-methylpropoxy)-[3,3′-bipyridine]-5-yl]acetic acid] | 3
COc1ccccc1CCOc1ncc(-c2cnc(C)c([C@H](OC(C)(C)C)C(=O)O)c2N2CCC(C)(C)CC2)cc1F [Example 382, (2S)-2-(tert-butoxy)-2-[4-(4,4-dimethylpiperidin-1-yl)-5′-fluoro-6′-[2-(2-methoxyphenyl)ethoxy]-6-methyl-[3,3′-bipyridine]-5-yl]acetic acid] | 5
COc1cccc(CCOc2ncc(-c3cnc(C)c([C@H](OC(C)(C)C)C(=O)O)c3N3CCC(C)(C)CC3)cc2F)c1 [Example 383, (2S)-2-(tert-butoxy)-2-[4-(4,4-dimethylpiperidin-1-yl)-5′-fluoro-6′-[2-(3-methoxyphenyl)ethoxy]-6-methyl-[3,3′-bipyridine]-5-yl]acetic acid] | 3
Cc1ncc(-c2cnc(OC(C)CC(C)C)c(F)c2)c(N2CCC(C)(C)CC2)c1[C@H](OC(C)(C)C)C(=O)O (stereo partly drawn) [Example 384, (2S)-2-(tert-butoxy)-2-[4-(4,4-dimethylpiperidin-1-yl)-5′-fluoro-6-methyl-6′-[(4-methylpentan-2-yl)oxy]-[3,3′-bipyridine]-5-yl]acetic acid] | 9
